The source of these data is article PMC6268315, “Investigating the Spectrum of Biological Activity of Substituted Quinoline-2-Carboxamides and Their Isosteres ^†” (Molecules, 2012).

Converted amounts (≈) assume the structure as drawn. Like-named read-outs stand apart in the source and are kept apart here.

One data set has as its system M. kansasii CIT11/06. Kind of data set: In vitro antimycobacterial evaluation (alamarBlue). The note with it: Mycobacterium kansasii, read-out: MIC/IC90 M. kansasii. The format is cell-based. Background: The colour change of resazurin is a common sign of viable cells or microbes.
Data set [1] has as its system M. avium paratuberculosis ATCC19698. The experiment in a line: In vitro antimycobacterial evaluation (alamarBlue). It is filed as cell-based. Particulars: Mycobacterium avium, 264 h, read-out: MIC/IC90 M.avium paratuberculosis.
The test system of data set [2] is M. avium complex CIT19/06. The experiment in a line: In vitro antimycobacterial evaluation (alamarBlue). It is filed as cell-based. Particulars: Mycobacterium avium, 120 h, read-out: MIC/IC90 M. avium complex.
Data set [3] has as its system photosynthetic electron transport (PET) in spinach chloroplasts. Kind of data set: Inhibition of photosynthetic electron transport (PET) in spinach chloroplasts. The format is biochemical, Spinacia oleracea L. Particulars: photoreduction of DCPIP, pH 7.2. The procedure: Chloroplasts were prepared from spinach (Spinacia oleracea L.) according to Masarovicova and Kralova. The inhibition of photosynthetic electron transport (PET) in spinach chloroplasts was determined spectrophotometrically (Genesys 6, Thermo Scientific, USA), using an artificial electron acceptor 2,6-dichlorophenol-indophenol (DCIPP) according to Kralova et al., and the rate of photosynthetic electron transport was monitored as a photoreduction of DCPIP. The measurements were carried out in phosphate buffer (0.02 mol/L, pH 7.2) containing sucrose (0.4 mol/L), MgCl2 (0.005 mol/L) and NaCl (0.015 mol/L). The chlorophyll content was 30 mg/L in these experiments and the samples were irradiated (~100 W/m^2 with 10 cm distance) with a halogen lamp (250 W) using a 4 cm water filter to prevent warming of the samples (suspension temperature 22 °C). The studied compounds were dissolved in DMSO due to their limited water solubility. […] The inhibitory efficiency of the studied compounds was expressed by IC50 values, i.e., by molar concentration of the compounds causing 50% decrease in the oxygen evolution rate relative to the untreated control.

Data set [4] concerns human monocytic leukemia THP-1 cells. Particulars: human, 24 h.

The term melting point denotes the temperature of the solid-liquid transition. As to `CC(C)NC(=O)c1ccc2ccccc2n1` [Compound 1, N-Isopropylquinoline-2-carboxamide], the melting point was 75 to 76 °C. Moreover, the MIC in the data set on M. kansasii CIT11/06 (120 h, CIT11/06, 5 days) stood at 1170 µM (≈ 250 µg/mL). Also, the MIC in data set [1] (ATCC19698, 11 days) was 1170 µM (≈ 250 µg/mL). Moreover, the MIC in data set [2] (CIT19/06, 5 days) turned out to be 583 µM (≈ 125 µg/mL).
As a reminder, the IC50 is the concentration that gives 50% inhibition. Lower therefore signals greater potency in that assay. Consider `CCCCCCCCCCCCNC(=O)c1ccc2ccccc2n1` [Compound 2, N-Dodecylquinoline-2-carboxamide], for which the MIC with M. kansasii CIT11/06 (120 h, CIT11/06, 5 days) stood at 734 µM (≈ 250 µg/mL); in data set [1] (ATCC19698, 11 days), 734 µM (≈ 250 µg/mL); in data set [2] it was 367 µM (≈ 125 µg/mL). Further, in data set [3], the IC50 stood at 573 µM.
In turn, `O=C(NC1CCCC1)c1ccc2ccccc2n1` [Compound 5, N-Cyclopentylquinoline-2-carboxamide] yielded a melting point of 63 to 64 °C. In the data set with M. kansasii CIT11/06 (CIT11/06, 120 h), the MIC is 491 µM (≈ 118 µg/mL). The compound also returned an IC50 in data set [3] of 762 µM. The MIC in data set [1] is 491 µM (≈ 118 µg/mL). The MIC in data set [2] was 491 µM (≈ 118 µg/mL).
In turn, `O=C(NC1CCCCC1)c1ccc2ccccc2n1` [Compound 6, N-Cyclohexylquinoline-2-carboxamide] came in with a melting point of 98 to 99 °C. In addition, the MIC in the data set on M. kansasii CIT11/06 (120 h, CIT11/06, 5 days) is 520 µM (≈ 132 µg/mL). In addition, the IC50 in data set [3] was found to be 1040 µM. The MIC in data set [1] (ATCC19698, 11 days) was 520 µM (≈ 132 µg/mL). The MIC in data set [2] (CIT19/06, 5 days) amounted to 520 µM (≈ 132 µg/mL).
For `O=C(NC1CCCCCC1)c1ccc2ccccc2n1` [Compound 7, N-Cycloheptylquinoline-2-carboxamide], the MIC came to 466 µM (≈ 125 µg/mL) in the data set with M. kansasii CIT11/06 (120 h, CIT11/06, 5 days); 223 µM (≈ 59.8 µg/mL) in data set [1] (ATCC19698, 11 days); 466 µM (≈ 125 µg/mL) in data set [2] (CIT19/06, 5 days). In data set [4], this compound registered an LD50 of 62 ± 4.5 µmol/L.
Consider `Cc1cccc(NC(=O)c2ccc3ccccc3n2)c1` [Compound 14b, N-(3-Methylphenyl)quinoline-2-carboxamide], for which the melting point fell in the range of 82 to 83 °C. Besides, in the data set on M. kansasii CIT11/06 (CIT11/06, 120 h), the MIC stood at 469 µM (≈ 123 µg/mL). Moreover, the IC50 in data set [3] turned out to be 101 µM. Further, in data set [1] (ATCC19698, 11 days), the MIC stood at 939 µM (≈ 246 µg/mL). Moreover, in data set [2], the MIC worked out at 469 µM (≈ 123 µg/mL).
As to `COc1ccccc1NC(=O)c1ccc2ccccc2c1` [Compound 32a, N-(2-Methoxyphenyl)-2-naphthamide], the melting point worked out at 82 °C. Moreover, the MIC with M. kansasii CIT11/06 (120 h, CIT11/06, 5 days) is 451 µM (≈ 125 µg/mL). The compound further yielded a half-maximal inhibitory concentration (IC50) in data set [3] of 763 µM. Further, in data set [1] (ATCC19698, 11 days), the MIC was found to be 216 µM (≈ 59.9 µg/mL). Further, the MIC in data set [2] (CIT19/06, 5 days) was found to be 451 µM (≈ 125 µg/mL).
On to `COc1cccc(NC(=O)c2ccc3ccccc3c2)c1` [Compound 32b, N-(3-Methoxyphenyl)-2-naphthamide], for which the melting point came to 142 °C. In data set [3], this compound had an IC50 of 306 µM.
On the same counts, the results for `O=C(Nc1cccc(Cl)c1)c1ccc2ccccc2c1` [Compound 35b, N-(3-Chlorophenyl)-2-naphthamide] are 180 °C and 81 µM.
Turning to `O=C(Nc1cccc(Br)c1)c1ccc2ccccc2c1` [Compound 36b, N-(3-Bromophenyl)-2-naphthamide], the melting point was 193 °C. Besides, the IC50 in data set [3] was 103 µM.
In turn, `O=C(Nc1cccc(C(F)(F)F)c1)c1ccc2ccccc2c1` [Compound 37b, N-(3-Trifluoromethylphenyl)-2-naphthamide] returned a melting point of 150 °C. In data set [3], this compound showed an IC50 of 309 µM.
`O=C(Nc1cccc([N+](=O)[O-])c1)c1ccc2ccccc2c1` [Compound 38b, N-(3-Nitrophenyl)-2-naphthamide]: the melting point was 177 °C. Further, the midpoint of inhibition in data set [3], the IC50, lay at 633 µM.
On to `O=C(Nc1ccc([N+](=O)[O-])cc1)c1ccc2ccccc2c1` [Compound 38c, N-(4-Nitrophenyl)-2-naphthamide], for which the melting point turned out to be 200 °C. The compound further yielded a 50% inhibitory concentration (IC50) in data set [3] of 260 µM.
Take `NNC(=O)c1ccncc1` [INH, isoniazid, reference compound]: the MIC is < 72.9 µM in the data set on M. kansasii CIT11/06 (120 h, CIT11/06, 5 days); > 729 µM in data set [1]; < 72.9 µM in data set [2] (CIT19/06, 5 days).
For the compound `NC(=O)c1cnccn1` [PZA, pyrazinamide, reference compound], the MIC in the data set on M. kansasii CIT11/06 (CIT11/06, 120 h) is > 812 µM; in data set [1], > 812 µM; in data set [2], > 812 µM.
